Experimental data as given in publication PMC5433701, “SPR-based fragment screening with neurotensin receptor 1 generates novel small molecule ligands” (PLoS ONE, 2017).
Where two headings read alike, the source gives them in different places. One block for each compound: values may come before it.

What was measured:
pKa determination = assay type: physicochemical
NTS1-H4 receptor = test: SPR competition of NT8-13 and SR142948 on NTS1-H4 receptor; assay type: binding, rat; details: 100 nM NT8-13 then 100 nM SR142948 injected subsequently
Procedure: Supplementary file pone.0175842.s003.pdf: S3 Fig Competition of neurotensin peptide NT8-13 and antagonist SR142948 on the NTS1-H4 receptor. NT8-13 agonist (saturating concentration of 100 nM) and antagonist SR142948 (saturating concentration of 100 nM) were injected subsequently over the NTS1-H4 receptor-coated surface. No binding of SR142948 was detected on the NTS1-H4 receptor that had been saturated previously by agonist NT8-13 peptide, indicating complete occupancy of the binding site and binding to the same binding site. (PDF) Click here for additional data file.

NTS1-H4 = molecular target: NTS1-H4; parameters: method as in PMID 25064156; details: competition with fluorescently labeled NT8-13, NTS1-H4-coated beads; cited from earlier work
rat NTS1-H4 receptor = test: SPR kinetic binding of reference ligands on captured NTS1-H4 receptor
Procedure: All SPR binding experiments were performed on Biacore® 3000, T200 and Biacore 4000 (GE Healthcare, Uppsala, Sweden) instruments at 15°C in a running buffer composed of 20 mM Tris, 150 mM NaCl, 0.01% (v/v) L-MNG, 2% (v/v) DMSO, pH 8.0, at flow of 30 μl·min^-1. Running buffer was prepared freshly every day and filtered with Express™Plus Steritop filters with 0.22 μm cut off (Millipore, Billerica, MA, USA) and degassed prior to SPR analysis. Dose-response experiments for peptides were performed in the buffer without DMSO, as the analyzed peptide concentration range was in nM range and it was not necessary to work with DMSO in the running buffer to correct for the resonance signals. […]
All SPR data processing and analyses were performed using BiaEvaluation Software (version 1.0 (Biacore 4000) and 4.1 (Biacore 3000)), and GraphPadPrism (version 6.04). All monitored binding resonance signals were corrected regarding DMSO solvent signals and further double-referenced, i. e., signals monitored on the binding active channel were subtracted by signals from the reference channel (sensor surface not modified with any reference protein) and by buffer signals. […]

binding to NTS1-H4 receptor previously saturated by NT8-13 (NTS1-H4 receptor): No binding | Kd (rat NTS1-H4 receptor): 0.4 nM
Compound: SR142948
Ki (NTS1-H4): 0.5 nM

pKa (pKa determination; read-out: pKa1 ± σ): 2.14 ± 0.04
Compound: Nc1nnc2c(C(F)(F)F)nc3ccccc3n12 [fragment 1]

Second part, the compound before the results:

Compound: COc1cccc(S(=O)(=O)c2ccccc2CC(N)=O)c1 [fragment 2]
pKa1 ± σ (pKa determination): out of range

Compound: COc1ccc(Cc2nn[nH]n2)cc1 [fragment 4]
pKa (pKa determination; read-out: pKa1 ± σ): 4.86 ± 0.08

Compound: COc1ccc(N(C(C)C)S(N)(=O)=O)cc1 [fragment 3]
pKa (pKa determination; read-out: pKa1 ± σ): 6.49 ± 0.04 | pKa (pKa determination; read-out: pKa2): 11.04 ± 0.08
